Results published in patent US4595693A, “Method of use of 2,5-diaryl tetrahydrofurans and analogs thereof as PAF-antagonists” (Merck & Co., Inc., priority 1984, dated 1986).

Experiments:
[1] = molecular target: T1, PAF specific receptor binding site on rabbit platelet plasma membranes (Oryctolagus cuniculus, UniProt G1TEI7); test: Inhibition of 3H-PAF binding to rabbit platelet plasma membrane; settings: 1 h
T1 construct: 100 μg of the platelet plasma membrane suspension; from tissue; host or cells: rabbit platelet plasma membranes
Description: The inhibition of H^3 -PAF binding to the rabbit platelet plasma membrane by a PAF-antagonist of Formula (I) was determined by a method employing isotopic labeling and filtration techniques. Generally, a series of Tris-buffered solutions of the selected antagonist at predetermined concentrations were prepared. […] After adding into a set of test tubes each with 100 μg of the platelet plasma membrane suspension and one of the Tris-buffer solutions described above, the resulting mixture in each test tube was incubated at 0° C. for about one hour or until the reaction was complete. Two control samples, one of which (C1) contains all the ingredients described above except the antagonist and the other (C2) contains C1 plus a 1000-fold excess of unlabelled PAF, were also prepared and incubated simultaneously with the test samples. After the incubation was completed, the contents of each test tube were filtered under vacuo through a Whatman GF/C fiberglass filter and the residue washed rapidly several times with a total of 20 ml cold (0°-5° C.) Tris-buffer solution. Each washed residue was then suspended in 10 ml scintillation solution (Aquasol 2, New England Nuclear, Conn.) and the radioactivity was counted in a Packard Tri-Carb 460CD Liquid Scintillation System. Defining the counts from a test sample as "Total binding with antagonist"; the counts from the control sample C1, as "Total binding C1 "; and the counts from the control sample C2 as "non-specific binding C2 ", the percent inhibition of each test antagonist can be determined by the following equation: [formula]

[2] = test system: PAF-induced degranulation; test: Method II: inhibition of PAF-induced degranulation in rats; assay type: in vivo, rat; settings: oral dose of 50 mg/kg
[3] = test system: PAF-induced cutaneous vascular permeability; test: Method I: oral inhibition of PAF-induced increase of cutaneous vascular permeability; assay type: in vivo; settings: guinea pig, dose 50 mg/kg PO
Source text: The specific PAF-antagonistic activities are further established by two in vivo assays (Modified procedure of Humphrey et al. Lab. Investigation, 46, 422 (1982)) following the protocols described below:
Method I: Protocol for the evaluation of the oral activity of PAF antagonists or the inhibition of PAF-induced increase of vasopermeability by PAF-antagonists
I. Animal species: 5 guinea pigs (400-500 g)
II. Material: 0.5% (w/v) aqueous methylcellulose solution sodium nembutol
2% Evans Blue solution: 2 g of Evans Blue in 100 ml of pH 7.5 Tris-Buffer solution
Tris-Buffer solution: 150 mM NaCl and 10 mM Tris/ml with pH adjusted to 7.5.
1. Weigh the guinea pigs. Label them as control, T1, T2, T3 and T4.
2. Fast the animals overnight.
3. Weigh the animals again after the fasting.
4. Ground and suspend a PAF antagonist of formula (I) with intensive sonication in 3 ml of 0.5% aqueous methylcellulose solution.
5. […]
8. […] In the meantime, shave the backs of the guinea pigs and get ready for the PAF injection. […]
15. Measure the absorbance of each supernatant from Step (14) ("skin sample") as well as the plasma extract from Step (13) ("plasma sample") at 620 nm with a Cary 210 spectrophotometer (Varian, Palo Alto, CA). […]

[4] = test system: PAF; test: PAF-antagonist activity (general comparison)

T1 sequence (G1TEI7 1-342): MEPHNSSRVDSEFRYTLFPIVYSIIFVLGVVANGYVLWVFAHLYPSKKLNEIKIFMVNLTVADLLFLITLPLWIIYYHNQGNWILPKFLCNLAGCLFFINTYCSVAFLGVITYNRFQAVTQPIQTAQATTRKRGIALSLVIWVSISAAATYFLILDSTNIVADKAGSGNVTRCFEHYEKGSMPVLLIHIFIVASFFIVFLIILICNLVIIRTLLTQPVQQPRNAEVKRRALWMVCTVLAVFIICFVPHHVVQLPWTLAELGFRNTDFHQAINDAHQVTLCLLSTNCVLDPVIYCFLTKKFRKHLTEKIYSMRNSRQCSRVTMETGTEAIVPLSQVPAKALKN

For `COc1ccc(OC)c(C2OC(c3cc(OC)ccc3OC)C(C)C2C)c1` (stereo not shown), the inhibition at 10 µM [1] was 52%.
In the case of `COC(=O)[C@@H]1[C@@H](C(=O)OC)[C@H](c2cc(OC)c(O)cc2Cl)O[C@@H]1c1cc(OC)c(O)cc1Cl` (relative stereo), the inhibition at 1 µM [1] is reported as 15%.
For `COC[C@H]1[C@@H](C)[C@@H](c2ccc(OC)c(OC)c2)O[C@H]1c1ccc(OC)c(OC)c1` (relative stereo) [R=CH3; R1=CH2OCH3; Ar=3,4-dimethoxyphenyl; Ar1=Same as Ar; isomer (4)], the inhibition at 5 µM [1] was 62%.
With `COc1cc([C@H]2O[C@@H](c3cc(OC)c(OC)c(OC)c3)[C@H](C)[C@H]2C)cc(OC)c1OC` (relative stereo) [R=CH3; R1=CH3; Ar=3,4,5-trimethoxyphenyl; Ar1=Same as Ar; isomer (1)] the inhibition at 0.5 µM ([1]; dose 0.5 (μm)) was 42% and the inhibition at 5 µM [1] was 61%.
`COc1cc([C@@H]2O[C@@H](c3cc(OC)c(OC)c(OC)c3)[C@H](C)[C@H]2C)cc(OC)c1OC` (relative stereo) [R=CH3; R1=CH3; Ar=3,4,5-trimethoxyphenyl; Ar1=Same as Ar; isomer (2)] gave an inhibition at 1 µM [1] of 2%, an inhibition at 5 µM [1] of 39% and an inhibition at 20 µM [1] of 63%.
For `COc1ccc([C@H]2O[C@@H](c3ccccc3)[C@@H](C)[C@H]2C)cc1OC` (relative stereo) [R=CH3; R1=CH3; Ar=3,4-dimethoxyphenyl; Ar1=phenyl; isomer (4)], the inhibition at 1 µM [1] was 9% and the inhibition at 10 µM [1] was 100%.
`C[C@@H]1[C@H](C)[C@H](c2ccccc2)O[C@@H]1c1ccc2c(c1)OCO2` (relative stereo) [R=CH3; R1=CH3; Ar=3,4-methylenedioxyphenyl; Ar1=phenyl; isomer (4)] showed an inhibition at 1 µM [1] of 11% and an inhibition at 10 µM [1] of 45%.
For `COc1cccc([C@H]2O[C@@H](c3ccccc3)[C@@H](C)[C@H]2C)c1` (relative stereo) [R=CH3; R1=CH3; Ar=3-methoxyphenyl; Ar1=phenyl; isomer (4)], the inhibition at 1 µM [1] was 28% and the inhibition at 10 µM [1] was 49%.
With `COc1ccc([C@H]2O[C@@H](c3ccc(OC)cc3)[C@H](C)[C@H]2C)cc1` (relative stereo) [R=CH3; R1=CH3; Ar=4-methoxyphenyl; Ar1=Same as Ar; isomer (1)] the inhibition at 10 µM [1] was 47%.
Work on `C[C@@H]1[C@@H](C)[C@H](c2ccccc2)O[C@@H]1c1ccccc1` (relative stereo) [R=CH3; R1=CH3; Ar=phenyl; Ar1=phenyl; isomer (1)] yielded an inhibition at 5 µM [1] of 13%.
`COC(=O)[C@@H]1[C@H](C)[C@H](c2ccc(OC)c(OC)c2)O[C@@H]1c1ccc(OC)c(OC)c1` (relative stereo) [R=CO2CH3; R1=CH3; Ar=3,4-dimethoxyphenyl; Ar1=Same as Ar; isomer (4)] was tested, and the inhibition at 1 µM [1] was 33%.
Work on `CCOC(=O)[C@@H]1[C@@H](C(=O)OCC)[C@H](c2ccc(OC)c(OC)c2)O[C@@H]1c1ccc(OC)c(OC)c1` (relative stereo) [R=CO2Et; R1=CO2Et; Ar=3,4-dimethoxyphenyl; Ar1=Same as Ar; isomer (1)] yielded an inhibition at 1 µM [1] of 63%.
`COc1ccc([C@H]2O[C@@H](c3ccc(OC)c(OC)c3)[C@@H](C)[C@H]2C(=O)O)cc1OC` (relative stereo) [R=COOH; R1=CH3; Ar=3,4-dimethoxyphenyl; Ar1=Same as Ar; isomer (4)] gave an inhibition at 1 µM [1] of 18%.
`COc1cc([C@H]2O[C@@H](c3cc(OC)c(OC)c(OC)c3)[C@@H](C)[C@H]2C)cc(OC)c1OC` [R=CH3; R1=CH3; Ar=3,4,5-trimethoxyphenyl; Ar1=Same as Ar; isomer (4)] gave an inhibition at 1 µM [1] of 12%, an inhibition at 5 µM [1] of 48% and an inhibition at 20 µM [1] of 68%.
With `COc1ccc([C@H]2O[C@@H](c3ccc(OC)c(OC)c3)[C@@H](C)[C@H]2C)cc1OC` [R=CH3; R1=CH3; Ar=3,4-dimethoxyphenyl; Ar1=Same as Ar; isomer (4), All cis-3,4-Dimethyl-2,5-bis(3,4-dimethoxyphenyl)-tetrahydrofuran] the “inhibition of PAF-induced degranulation” value [2] was 49%, the “% inhibition” value [3] was 30% and the “PAF-antagonist activity, rank in words” value [4] was “most active PAF-antagonist”.
